Key:
[1] = test system: SKOV3: human ovarian carcinoma cell line; test: Proliferation IC50 assay, oxic/hypoxic, SKOV3; type: cell-based; conditions: for IC50: Homo sapiens, SK-OV-3, 4 h exposure under aerobic conditions; for HCR SKOV3: IC50(aerobic)/IC50(hypoxic); for HCR (hypoxic cytotoxicity ratio) SKOV3: IC50(aerobic)/IC10(hypoxic)
[2] = test system: HT29: human colon cancer cell line; test: Proliferation IC50 assay, oxic/hypoxic, HT29; type: cell-based; conditions: for IC50: Homo sapiens, HT-29, 4 h exposure under aerobic conditions; for HCR HT29: IC50(aerobic)/IC50(hypoxic); for HCR (hypoxic cytotoxicity ratio) HT29: IC50(aerobic)/IC10(hypoxic)

Row | SMILES | melting point | IC50 ([1]; Table 4) [nM] | HCR SKOV3 ([1]; Table 4) | IC50 ([2]; Table 4) [nM] | HCR HT29 ([2]; Table 4) | IC50 ([1]; Table 3) [nM] | HCR (hypoxic cytotoxicity ratio) SKOV3 ([1]; Table 3) | IC50 ([2]; Table 3) [nM] | HCR (hypoxic cytotoxicity ratio) HT29 ([2]; Table 3)
1 | COc1cc2cc(C(=O)N3CC(CCl)c4c3cc(N)c3ccc(S(C)(=O)=O)cc43)[nH]c2c(OC)c1OC (centres unmarked) [Compound 63, 5-Amino-1-(chloromethyl)-8-(methylsulfonyl)-3-(5,6,7-trimethoxyindol-2-carbonyl)-1,2-dihydro-3H-benzo[e]indole] | 165 to 170 °C | 19 | 1.4 | 25 | 1.0 | – | – | – | –
2 | COc1ccc(/C=C/C(=O)N2CC(CCl)c3c2cc([N+](=O)[O-])c2cc(C(=O)NCCO)ccc32)cc1 (centres unmarked) [Compound 18, 1-(Chloromethyl)-N-(2-hydroxyethyl)-3-[(E)-4-methoxycinnamoyl]-5-nitro-1,2-dihydro-3H-benzo[e]indole7-carboxamide] | 240 to 241 °C | – | – | – | – | 4800 | 4.7 | 4400 | 4.4
3 | COc1cc2cc(C(=O)N3CC(CCl)c4c3cc([N+](=O)[O-])c3ccc(S(N)(=O)=O)cc43)[nH]c2c(OC)c1OC (centres unmarked) [Compound 48, 1-(Chloromethyl)-5-nitro-3-(5,6,7-trimethoxyindol-2-carbonyl)-1,2-dihydro-3H-benzo[e]indole-8-sulfonamide] | 264 to 266 °C (dec.) | – | – | – | – | 12000 | 2.6 | 24000 | 1.9
4 | COc1cc2cc(C(=O)N3CC(CCl)c4c3cc([N+](=O)[O-])c3cc(S(C)(=O)=O)ccc43)[nH]c2c(OC)c1OC (centres unmarked) [Compound 23, 1-(Chloromethyl)-7-(methylsulfonyl)-5-nitro-3-(5,6,7-trimethoxyindol-2-carbonyl)-1,2-dihydro-3H-benzo[e]indole] | 296 to 297 °C (dec.) | – | – | – | – | 17000 | 1.9 | 14000 | 2.0
5 | CNS(=O)(=O)c1ccc2c3c(cc(N)c2c1)N(C(=O)c1cc2cc(OCCN(C)C)ccc2[nH]1)CC3CCl (centres unmarked) [Compound 61, 5-Amino-1-(chloromethyl)-3-{5-[2-(dimethylamino)ethoxy]indol-2-carbonyl}-N-methyl-1,2-dihydro-3H-benzo[e]indole-7-sulfonamide] | 260 to 265 °C (dec.) | 20 | 1.8 | 24 | 1.2 | – | – | – | –
6 | CN(C)CCOc1ccc2[nH]c(C(=O)N3CC(CCl)c4c3cc(N)c3ccc(S(C)(=O)=O)cc43)cc2c1 (centres unmarked) [Compound 64, 5-Amino-1-(chloromethyl)-3-{5-[2-(dimethylamino)ethoxy]indol-2-carbonyl}-8-(methylsulfonyl)-1,2-dihydro-3H-benzo[e]indole] | 235 to 240 °C | 18 | 1.5 | 29 | 1.9 | – | – | – | –
7 | COc1cc2cc(C(=O)N3CC(CCl)c4c3cc([N+](=O)[O-])c3cc(C(N)=O)ccc43)[nH]c2c(OC)c1OC (centres unmarked) [Compound 15, 1-(Chloromethyl)-5-nitro-3-[5,6,7-trimethoxyindol-2-carbonyl]-1,2-dihydro-3H-benzo[e]indole-7-carboxamide] | 287 to 289 °C | – | – | – | – | 5800 | 6.1 | 7900 | 2.8
8 | COc1cc2cc(C(=O)N3CC(CCl)c4c3cc([N+](=O)[O-])c3c([N+](=O)[O-])cccc43)[nH]c2c(OC)c1OC (centres unmarked) [Compound 1, 1-(Chloromethyl)-5,6-dinitro-3-(5,6,7-trimethoxyindol-2-carbonyl)-1,2-dihydro-3H-benzo[e]indole] | 278 to 279 °C | – | – | – | – | > 20000 | – | 18000 | <1
9 | CC(=O)c1ccc2c([N+](=O)[O-])cc3c(c2c1)C(CCl)CN3C(=O)c1cc2cc(OCCN(C)C)ccc2[nH]1 (centres unmarked) [Compound 41, 8-Acetyl-1-(chloromethyl)-3-{5-[2-(dimethylamino)ethoxy]indol-2-carbonyl}-5-nitro-1,2-dihydro-3H-benzo[e]indole] | 210 to 215 °C | – | – | – | – | 200 | 1.3 | 150 | 1.1
10 | COc1ccc(/C=C/C(=O)N2CC(CCl)c3c2cc([N+](=O)[O-])c2cc(S(=O)(=O)NCCO)ccc32)cc1 (centres unmarked) [Compound 37, 1-(Chloromethyl)-N-(2-hydroxyethyl)-3-[(E)-4-methoxycinnamoyl]-5-nitro-1,2-dihydro-3H-benzo[e]indole-7-sulfonamide] | 250 to 251 °C | – | – | – | – | 4700 | 3.4 | 4800 | 1.3
11 | CC(=O)c1ccc2c3c(cc(N)c2c1)N(C(=O)c1cc2cc(OCCN(C)C)ccc2[nH]1)CC3CCl (centres unmarked) [Compound 53, 7-Acetyl-5-amino-1-(chloromethyl)-3-{5-[2-(dimethylamino)ethoxy]indol-2-carbonyl}-1,2-dihydro-3H-benzo[e]indole] | 220 to 224 °C (dec.) | 11 | 1.4 | 7.6 | 1.5 | – | – | – | –
12 | CN(C)CCOc1ccc2[nH]c(C(=O)N3CC(CCl)c4c3cc(N)c3cc(C#N)ccc43)cc2c1 (centres unmarked) [Compound 56, 5-Amino-1-(chloromethyl)-3-{5-[2-(dimethylamino)ethoxy]indol-2-carbonyl}-1,2-dihydro-3H-benzo[e]indole-7-carbonitrile] | 250 to 255 °C (dec.) | 13 | 1.1 | 17 | 2.0 | – | – | – | –
13 | CN(C)CCOc1ccc2[nH]c(C(=O)N3CC(CCl)c4c3cc(N)c3cc(S(N)(=O)=O)ccc43)cc2c1 (centres unmarked) [Compound 60, 5-Amino-1-(chloromethyl)-3-{5-[2-(dimethylamino)ethoxy]indol-2-carbonyl}-1,2-dihydro-3H-benzo[e]indole-7-sulfonamide] | 260 to 266 °C (dec.) | 23 | 1.4 | 35 | 1.8 | – | – | – | –
14 | CN(C)CCOc1ccc2[nH]c(C(=O)N3CC(CCl)c4c3cc([N+](=O)[O-])c3cc(N)ccc43)cc2c1 (centres unmarked) [Compound 10, 7-Amino-1-(chloromethyl)-3-{5-[2-(dimethylamino)ethoxy]indol-2-carbonyl}-5-nitro-1,2-dihydro-3H-benzo[e]indole] | > 300 °C | – | – | – | – | 2500 | 2.0 | 1800 | 2.4
15 | COC(=O)c1ccc2c3c(cc([N+](=O)[O-])c2c1)N(C(=O)c1cc2cc(OC)c(OC)c(OC)c2[nH]1)CC3CCl (centres unmarked) [Compound 13, Methyl 1-(chloromethyl)-3-(5,6,7-trimethoxyindol-2-carbonyl)-5-nitro-1,2-dihydro-3H-benzo[e]indole-7-carboxylate] | 256 to 257 °C | – | – | – | – | 1100 | 4.0 | 1900 | 3.2
16 | CC(=O)c1ccc2c3c(cc([N+](=O)[O-])c2c1)N(C(=O)c1cc2cc(OCCN(C)C)ccc2[nH]1)CC3CCl (centres unmarked) [Compound 12, 7-Acetyl-1-(chloromethyl)-3-{5-[2-(dimethylamino)ethoxy]indol-2-carbonyl}-5-nitro-1,2-dihydro-3H-benzo[e]indole] | > 350 °C | – | – | – | – | 640 | 4.0 | 170 | 1.5
17 | COC(=O)c1ccc2c3c(cc(N)c2c1)N(C(=O)c1cc2cc(OCCN(C)C)ccc2[nH]1)CC3CCl (centres unmarked) [Compound 54, Methyl 5-amino-1-(chloromethyl)-3-{5-[2-(dimethylamino)ethoxy]indol-2-carbonyl}-1,2-dihydro-3H-benzo[e]indole-7-carboxylate] | 225 to 230 °C | 7.7 | 0.91 | 8.6 | 1.7 | – | – | – | –
18 | COc1cc2cc(C(=O)N3CC(CCl)c4c3cc([N+](=O)[O-])c3c(C(C)=O)cccc43)[nH]c2c(OC)c1OC (centres unmarked) [Compound 3, 6-Acetyl-1-(chloromethyl)-5-nitro-3-(5,6,7-trimethoxyindol-2-carbonyl)-1,2-dihydro-3H-benzo[e]indole] | 180 to 183 °C | – | – | – | – | 500 | 3.4 | 680 | 2.0
19 | CN(C)CCOc1ccc2[nH]c(C(=O)N3CC(CCl)c4c3cc(N)c3cc(C(N)=O)ccc43)cc2c1 (centres unmarked) [Compound 55, 5-Amino-1-(chloromethyl)-3-{5-[2-(dimethylamino)ethoxy]indol-2-carbonyl}-1,2-dihydro-3H-benzo[e]indole-7-carboxamide] | 232 to 236 °C (dec.) | 13 | 1.0 | 61 | 1.4 | – | – | – | –
20 | COc1cc2cc(C(=O)N3CC(CCl)c4c3cc(N)c3cc(S(C)(=O)=O)ccc43)[nH]c2c(OC)c1OC (centres unmarked) [Compound 57, 5-Amino-1-(chloromethyl)-7-(methylsulfonyl)-3-(5,6,7-trimethoxyindol-2-carbonyl)-1,2-dihydro-3H-benzo[e]indole] | 266 to 268 °C | 32 | 1.2 | 32 | 0.86 | – | – | – | –
21 | CN(C)CCOc1ccc2[nH]c(C(=O)N3CC(CCl)c4c3cc(N)c3cc(S(C)(=O)=O)ccc43)cc2c1 (centres unmarked) [Compound 58, 5-Amino-1-(chloromethyl)-3-{5-[2-(dimethylamino)ethoxy]indol-2-carbonyl}-7-(methylsulfonyl)-1,2-dihydro-3H-benzo[e]indole] | 280 to 285 °C | 14 | 1.7 | 11 | 1.6 | – | – | – | –

Reference: patent US7718688B2, “Nitrobenzindoles and their use in cancer therapy” (Auckland Uniservices Limited, priority 2004, dated 2010)
